Assay results reported in patent US9073861B2, “Diphenylmethyl piperazine derivative and pharmaceutical composition using same” (AETAS PHARMA CO., LTD., priority 2011, dated 2015).

Columns and labels:
normal rats = assay: Hemodynamics before and after intravenous administration in anesthetized normal rats (left ventricular pressure catheter); assay type: in vivo, Wistar male rats; conditions: 0.1 mg/kg/min for 10 min i.v.; for maximum +dP/dt after administration as compared to that by the comparative compound [A]: FIG. 7; for maximum −dP/dt after administration as compared to that by the comparative compound [A]: FIG. 8
Method: Wistar male rats were bred for a week and then anesthetized by inhalation of 3% isoflurane. A pressure sensor-tipped catheter (2F Millar) was inserted into the left ventricle from the right common carotid artery, and a polyethylene tube (SP10) for injection of the compounds of the present invention or physiological saline was inserted from the right femoral vein. After stabilizing hemodynamics for 10 minutes, the compound [2] of the present invention was administered from the polyethylene tube at 0.1 mg/kg/min for 10 min, and the cardiac rate, left ventricular pressure, maximum +dP/dt, and maximum −dP/dt were measured for 20 heart beats every minute. In the control group, only physiological saline, which is a solvent, was administered. It is noted that the injection rate of each solution was 16.6 μl per min.
The cardiac rate, maximum left ventricular pressure, maximum +dP/dt and maximum −dP/dt before administration of a drug were considered as 100%, and the values after administration were represented by values (% representation) relative to the values before administration. Using n=3 rats, experiments were carried out. Data are shown as mean and standard deviation. Consequently, cardiac rate before and after administration (the left side in FIG. 1) and changes in the maximum left ventricular pressure (the right side in FIG. 1) are shown in FIG. 1, and changes in the maximum +dP/dt (the left side in FIG. 2) and changes in the maximum −dP/dt (the right side in FIG. 2) are shown in FIG. 2.
(§1) Wistar male rats were bred for a week and then anesthetized by inhalation of 3% isoflurane. Experiments were carried out in the same manner as in Test Example 1, and the compound [3] of the present invention was administered as a test compound at 0.1 mg/kg/min for 10 min, and the cardiac rate, left ventricular pressure, maximum +dP/dt, and maximum −dP/dt were measured for 20 heart beats every minute. The maximum +dP/dt or the maximum −dP/dt before administration was considered as 100%, and the value after administration was represented by a value (% representation) relative to the value before administration. Data are shown as mean and standard deviation. Using n=3 rats, experiments were carried out.
as §1, with “[4]” for “[3]”
Wistar male rats were bred for a week and then anesthetized by inhalation of 3% isoflurane. Experiments were carried out in the same manner as in Test Example 1, and the comparison comparative compound [A] was administered as a test compound at 0.1 mg/kg/min for 10 min, and the cardiac rate, left ventricular pressure, maximum +dP/dt, and maximum −dP/dt were measured for 20 heart beats every minute. The maximum +dP/dt or the maximum −dP/dt before administration was considered as 100%, and the value after administration was represented by a value (% representation) relative to the value before administration. Data are shown as mean and standard deviation. Using n=3 rats, experiments were carried out.
From the results of the tests carried out in Test Examples 1, 3, 4 and 5, the maximum +dP/dt (FIG. 7) and the maximum −dP/dt (FIG. 8) after administration of the compound [2], and compound [3], and compound [4] of the present invention as well as the comparative compound [A] were compared and examined.

[1] = tested on: rats with obsolete myocardial infarction; assay: Effect on myocardial contraction and relaxation in rats with obsolete myocardial infarction (coronary ligation, one month after operation); assay type: in vivo, Wistar male rats; conditions: 0.1 mg/kg/min for 10 min i.v., n=3
Text: Wistar male rats were anesthetized by inhalation of 3% isoflurane. The chest was opened at the left third intercostal space and the pericardial membrane was incised. The left anterior descending coronary artery was completely ligated with silk string (6.0; Ethicon) in the infarction group, and then the chest was immediately closed. Following this procedure, the inserted endotracheal tube was removed, and rats were awakened and then returned to a breeding room.
One month after operation, rats were anesthetized and endotracheally intubated, a pressure sensor-tipped catheter (2F Millar) was inserted into the left ventricle from the right common carotid artery, and a polyethylene tube (SP10) for injection of physiological saline or the compounds of the present invention was inserted from the right femoral vein in the same manner as in Test Example 1. After stabilizing hemodynamics for 10 minutes, the compound [2] of the present invention was administered from the polyethylene tube at 0.1 mg/kg/min for 10 min, and the cardiac rate, left ventricular pressure, maximum +dP/dt, and maximum −dP/dt were measured for 20 heart beats every minute. In the control group, only physiological saline, which is a solvent, was administered. It is noted that the injection rate of each solution was 16.6 μl per min. Using n=3 rats, experiments were carried out.
The maximum +dP/dt or the maximum −dP/dt before administration was considered as 100%, and the value after administration was represented by a value (% representation) relative to the value before administration. Data are shown as mean and standard deviation.

SMILES	maximum +dP/dt after administration as compared to that by the comparative compound [A] (normal rats)	maximum −dP/dt after administration as compared to that by the comparative compound [A] (normal rats)	cardiac rate after administration relative to before administration (normal rats; pre-administration = 100%, n=3)	left ventricular pressure after administration relative to before administration (normal rats; pre-administration = 100%, n=3)	maximum +dP/dt (index of contractile function) after vs before administration (normal rats; pre-administration = 100%, n=3)	maximum −dP/dt (index of relaxing function) after vs before administration (normal rats; pre-administration = 100%, n=3)	cardiac rate after vs before administration [1]	left ventricular pressure after vs before administration [1]	maximum +dP/dt after vs before administration ([1]; pre-administration = 100%)	maximum −dP/dt after vs before administration ([1]; pre-administration = 100%)
OC(CN1CCN(C(c2ccccc2)c2ccccc2)CC1)CN1CCC(O)(c2ccccc2)CC1 (centres unmarked) [compound [2], 1-[4-(diphenylmethyl)piperazinyl]-3-(4-hydroxy-4-phenyl-piperidinyl)-2-propanol]	significantly raised	significantly raised	not increased	significantly raised	significant increases	significant increases	significant changes in the cardiac rate were not observed	significantly increased	significantly increased	significantly increased
OC1(c2ccc(Cl)cc2)CCN(CCCN2CCN(C(c3ccccc3)c3ccccc3)CC2)CC1 [compound [3], 1-[4-(diphenylmethyl)piperazinyl]-3-[4-(4-chlorophenyl)-4-hydroxy-piperidinyl]propane]	significantly raised	significantly raised			significantly increased	significantly increased				
Cc1ccc(C2(O)CCN(CC(O)CN3CCN(C(c4ccccc4)c4ccccc4)CC3)CC2)cc1 (centres unmarked) [compound [4], 1-[4-(diphenylmethyl)piperazinyl]-3-[4-hydroxy-4-(4-methylphenyl)-piperidinyl]-2-propanol]	significantly raised	significantly raised			significantly increased	significantly increased				
OC(CN1CCN(C(c2ccccc2)c2ccccc2)CC1)CN1CCC(O)(c2ccc(Cl)cc2)CC1 (centres unmarked) [comparative compound [A], 1-[4-(diphenylmethyl)piperazinyl]-3-[4-(4-chlorophenyl)-4-hydroxy-piperidinyl]-2-propanol, reference compound]					tended to slightly increase after administration of the comparative compound [A], but significant changes were not observed	tended to slightly increase after administration of the comparative compound [A], but significant changes were not observed				
